In US11779559B2, “Compositions for treating fungal and bacterial biofilms and methods of using the same” (priority 2017, dated 2023):

How the values were obtained:
[1] = system: bacteria (S. aureus) biofilm and fungal (C. albicans) biofilm; experiment: Disruption biofilm assay, bacterial and fungal taken together; assay type: cell-based; conditions: disruption assay; bacterial and fungal biofilm; 1% amino acid (unless specifically noted); p≤0.001
Protocol: (§1) Two types of biofilm assays were performed: a sustained inhibition assay and a disruption assay. The sustained inhibition assay assesses the compound's ability to prevent biofilm development throughout all stages of biofilm formation, while the disruption assay assesses the compound's ability to break up an existing mature biofilm. These assays are described in detail in the following article: Lohse, M. B., Gulati, M., Valle Arevalo, A., Fishburn, A., Johnson, A. D., and Nobile, C. J. (2017) Assessment and optimizations of Candida albicans in vitro biofilm assays. Antimicrobial Agents and Chemotherapy 61: e02749-16.
(§2) For fungal biofilm assays, all solutions were prepared in RPMI 1640 medium. All bacterial biofilm solutions were prepared in Trypic Soy Broth (TSB), supplemented with 1% glucose (henceforth referred to as TSB-G). All subsequent procedures were performed in a manner that maintained sterility. A solution of each amino acid to be tested was prepared in weight to volume concentrations ranging from 0.1-5.0%. Amino acids were also tested in combinations. Compound solutions were homogenized with gentle agitation in the dark (4° C., 24 hours) before use.
(§3) Fungal strains were streaked on Yeast Peptone Dextrose (YPD) agar plates and incubated at 30° C. for 48 hours. A single colony from each strain to be tested was inoculated into YPD broth and grown for 12 hours, at 30° C., shaking at 225 rpm. For the fungal biofilm inhibition assay, 1 μl of saturated overnight cell culture was added to either 80 μL of RPMI-1640 or RPMI-1640 supplemented with the amino acid compound solution to be tested, in a 384-well plate. […] Media was carefully aspirated and the biofilm was measured by optical density at 600 nm. […] Media was carefully aspirated and the biofilm was measured by optical density at 600 nm. […]
(§4) Bacterial strains were streaked on Blood Agar plates (5% sheep blood in Tryptic Soy Agar) and incubated at 37° C. for 24 hours. […] Media was carefully aspirated and the biofilm was measured by optical density at 600 nm. […]

[2] = system: C. albicans; experiment: Sustained inhibition biofilm assay, fungal; assay type: cell-based, Candida albicans; conditions: sustained inhibition assay; C. albicans; 1% amino acid (unless specifically noted); p≤0.001
Protocol: as §1, with “J. (2017) Assessment and optimizations of Candida albicans in vitro biofilm assays.” left out
as §2, with “All” for “For fungal biofilm assays, all solutions were prepared in RPMI 1640 medium. All”
Fungal strains were streaked on Yeast Peptone Dextrose (YPD) agar plates and incubated at 30° C. for 48 hours. A single colony from each strain to be tested was inoculated into YPD broth and grown for 12 hours, at 30° C., shaking at 225 rpm. […] The cells were allowed to adhere to the plate for 90 minutes at 37° C. with shaking (350 rpm). […] The plate was further incubated for 24 hours at 37° C. with shaking (350 rpm). Media was carefully aspirated and the biofilm was measured by optical density at 600 nm. […] The cells were allowed to adhere to the plate for 90 minutes at 37° C. with shaking (350 rpm). […] The plate was further incubated for 24 hours at 37° C. with shaking (350 rpm). […] The plate was further incubated for 24 hours at 37° C. with shaking (350 rpm). Media was carefully aspirated and the biofilm was measured by optical density at 600 nm.

[3] = system: bacteria (S. aureus) biofilm and fungal (C. albicans) biofilm; experiment: Sustained inhibition biofilm assay, bacterial and fungal taken together; assay type: cell-based; conditions: sustained inhibition assay; bacterial and fungal biofilm; 1% amino acid (unless specifically noted); p≤0.001
Protocol: as §1, §2, §3, §4

## N[C@@H](CC(=O)O)C(=O)O [Aspartic Acid, L-aspartic acid]
[1]
  Reduce Both: ●● (two dots [ie. ••] signifies major effect (greater than about 30% change))
[2]
  Reduce F Biofilm: ●● (two dots [ie. ••] signifies major effect (greater than about 30% change))
[3]
  Reduce Both: ●● (two dots [ie. ••] signifies major effect (greater than about 30% change))
